Data published in article PMC7997572 (2020).

What was measured:
Test in all cases: CD melting
[1] = system: c-Myc (DNA, G4) TGAGGGTGGGTAGGGTGGGTAA; conditions: K+ (20 mM potassium phosphate, 5 mM KCl; Table S1 note: 5 mM phosphate, 20 mM KCl), pH 7.0, 150 μM compound (10 equiv), 15 μM DNA
[2] = system: Hairpin (DNA, hairpin) CGAATTCGTTTTCGAATTCG; conditions: K+ (20 mM potassium phosphate, 5 mM KCl; Table S1 note: 5 mM phosphate, 20 mM KCl); pH 7.0; 300 μM compound (10 equiv), 30 μM DNA
[3] = system: Tel23-h (DNA, G4) TTAGGGTTAGGGTTAGGGTTAGGGTT; conditions: K+ (20 mM potassium phosphate, 5 mM KCl; Table S1 note: 5 mM phosphate, 20 mM KCl); pH 7.0; 150 μM compound (10 equiv), 15 μM DNA
[4] = system: c-Kit2 (DNA, G4) CGGGCGGGCGCTAGGGAGGGT; conditions: K+ (20 mM potassium phosphate, 5 mM KCl; Table S1 note: 5 mM phosphate, 20 mM KCl); pH 7.0; 150 μM compound (10 equiv), 15 μM DNA
[5] = system: c-Kit1 (DNA, G4) AGGGAGGGCGCTGGGAGGAGGG; conditions: K+ (20 mM potassium phosphate, 5 mM KCl; Table S1 note: 5 mM phosphate, 20 mM KCl); pH 7.0; 150 μM compound (10 equiv), 15 μM DNA
[6] = system: Tel23-p (DNA, G4) TTAGGGTTAGGGTTAGGGTTAGGGTT; conditions: K+ (20 mM potassium phosphate, 5 mM KCl; Table S1 note: 5 mM phosphate, 20 mM KCl); pH 7.0; 150 μM compound (10 equiv), 15 μM DNA

| SMILES | ΔTm [2] [°C] | ΔTm [3] [°C] | ΔTm [5] [°C] | also measured |
| --- | --- | --- | --- | --- |
| O=C1Nc2ccc(Cl)cc2/C1=C\c1cccc(/C=N/NC2=NCCN2)c1 |  |  |  | ΔTm [1]: 14.1 ± 1.0 °C |
| NC(N)=N/N=C/c1c(Cl)n(C/C=C/c2ccccc2)c2ccccc12 | 0.0 ± 1.0 |  |  |  |
| O=C1Nc2c(ccc3ccccc23)/C1=C\c1cccc(/C=N/NC2=NCCN2)c1 |  |  | 14.5 ± 1.0 | ΔTm [4]: 26.0 ± 1.0 °C; ΔTm ([1]; exact value not determinable): > 22 °C |

Further lines, with some results ahead:

| ΔTm [2] [°C] | ΔTm [3] [°C] | ΔTm [5] [°C] | SMILES | also measured |
| --- | --- | --- | --- | --- |
| 7.0 ± 1.0 |  |  | COc1cc2c(/C=N/NC(=N)N)c(Cl)n(C)c2cc1C |  |
|  | 10.0 ± 1.0 |  | Cc1cc2c(cc1O)/C(=C\c1cccc(/C=N/NC(=N)N)c1)C(=O)N2 |  |
|  | 1.0 ± 1.0 | 1.5 ± 1.0 | CC(C)(C)c1cc(/C=N/NC(=N)N)c(O)c(/C=C2/C(=O)Nc3c2ccc2ccccc32)c1 | ΔTm [6]: 27.0 ± 1.0 °C |
